# Experimental data: patent US12383545B1, “Treatment of migraine” (priority 2018, dated 2025)
# Tested on: participants with episodic migraine
# Experiment: Study B: phase 3 randomized open-label 52-week long-term safety trial, eDiary efficacy (atogepant arm)
# Type: in vivo, human
# Settings: for Change from Baseline in Monthly Acute Medication Use Days, LS means - MMRM / Monthly Acute Medication Use Days, Observed Mean: Atogepant 60 mg QD, mITT Population
# Experimental: Study B: A phase 3, multicenter, randomized, open label study was conducted to evaluate the long-term safety and tolerability of oral atogepant for the prevention of migraine in participants with episodic migraine (Study B). The study objective was to evaluate the safety and tolerability of daily treatment with atogepant 60 mg QD when administered over 52 weeks for the prevention of migraine in participants with episodic migraine.
# FIG. 12 provides a schematic for the long-term safety study design. The study comprised a 4-week baseline/screening period, followed by a 52-week open-label treatment period, and a 4-week safety follow-up period.
# A total of 744 participants from 106 sites were randomized in a ratio of 5:2 to the following treatment groups: atogepant 60 mg QD or oral standard of care (SOC) migraine prevention medication. The latter arm was included to contextualize safety data from the atogepant-treated participants, and efficacy measures were collected from the atogepant arm only. Efficacy measures were evaluated using the modified intent-to-treat (mITT) population and a mixed-effects model for repeated measures and included changes from baseline in monthly migraine days (MDDs), moderate/severe headache days, and acute medication use days, as well as the proportion of responders based on reductions in MMDs.
# A total of 739 patients (n=546 atogepant) were included in the safety population.
# All Screened Participants include those screened participants that signed informed consent forms. The Intent-to-Treat Population (ITT) includes all of the randomized participants. The safety population includes all participants who received at least one dose of study intervention (atogepant or SOC medication).
# Efficacy endpoints for this study included change from baseline in monthly migraine days at each monthly period; change from baseline in monthly headache days at each monthly period; change from baseline in monthly acute medication use days at each monthly period; and ≥50% improvement (reduction) in monthly migraine days at each monthly period.
# [1] = Study B, 60 mg QD, Weeks 1-4, mITT
# [2] = Study B, 60 mg QD, Weeks 5-8, mITT
# [3] = Study B, 60 mg QD, Weeks 9-12, mITT
# [4] = Study B, 60 mg QD, Weeks 13-16, mITT
# [5] = Study B, 60 mg QD, Weeks 17-20, mITT
# [6] = Study B, 60 mg QD, Weeks 21-24, mITT
# [7] = Study B, 60 mg QD, Weeks 25-28, mITT
# [8] = Study B, 60 mg QD, Weeks 29-32, mITT
# [9] = Study B, 60 mg QD, Weeks 33-36, mITT
# [10] = Study B, 60 mg QD, Weeks 37-40, mITT
# [11] = Study B, 60 mg QD, Weeks 41-44, mITT
# [12] = Study B, 60 mg QD, Weeks 45-48, mITT
# [13] = Study B, 60 mg QD, Weeks 49-52, mITT
# [14] = Study B, 60 mg QD, weeks 49-52, participants who remained in the trial
smiles,measurement,setting,value
C[C@@H]1[C@H](c2c(F)ccc(F)c2F)C[C@H](NC(=O)c2cnc3c(c2)C[C@@]2(C3)C(=O)Nc3ncccc32)C(=O)N1CC(F)(F)F [atogepant],"Monthly headache days, change from baseline, LS means (95% CI) - MMRM",[1],-4.00 days
same,"Monthly headache days, observed mean (SD)",[1],4.40 days
same,"Monthly migraine days, change from baseline, LS means (95% CI) - MMRM",[1],-3.84 days
same,"Monthly migraine days, observed mean (SD)",[1],3.47 days
same,"≥50% improvement (reduction) in monthly migraine days, responder n/N1 (%)",[1],(60.4) %
same,"Monthly headache days, change from baseline, LS means (95% CI) - MMRM",[2],-4.40 days
same,"Monthly headache days, observed mean (SD)",[2],3.97 days
same,"Monthly migraine days, change from baseline, LS means (95% CI) - MMRM",[2],-4.15 days
same,"Monthly migraine days, observed mean (SD)",[2],3.13 days
same,"≥50% improvement (reduction) in monthly migraine days, responder n/N1 (%)",[2],(65.1) %
same,"Monthly headache days, change from baseline, LS means (95% CI) - MMRM",[3],-4.80 days
same,"Monthly headache days, observed mean (SD)",[3],3.51 days
same,"Monthly migraine days, change from baseline, LS means (95% CI) - MMRM",[3],-4.38 days
same,"Monthly migraine days, observed mean (SD)",[3],2.85 days
same,"≥50% improvement (reduction) in monthly migraine days, responder n/N1 (%)",[3],(70.2) %
same,"Monthly headache days, change from baseline, LS means (95% CI) - MMRM",[4],-5.12 days
same,"Monthly headache days, observed mean (SD)",[4],3.19 days
same,"Monthly migraine days, change from baseline, LS means (95% CI) - MMRM",[4],-4.69 days
same,"Monthly migraine days, observed mean (SD)",[4],2.52 days
same,"≥50% improvement (reduction) in monthly migraine days, responder n/N1 (%)",[4],(74.1) %
same,"Monthly headache days, change from baseline, LS means (95% CI) - MMRM",[5],-5.35 days
same,"Monthly headache days, observed mean (SD)",[5],2.84 days
same,"Monthly migraine days, change from baseline, LS means (95% CI) - MMRM",[5],-4.76 days
same,"Monthly migraine days, observed mean (SD)",[5],2.33 days
same,"≥50% improvement (reduction) in monthly migraine days, responder n/N1 (%)",[5],(73.5) %
same,"Monthly headache days, change from baseline, LS means (95% CI) - MMRM",[6],-5.30 days
same,"Monthly headache days, observed mean (SD)",[6],2.87 days
same,"Monthly migraine days, change from baseline, LS means (95% CI) - MMRM",[6],-4.72 days
same,"Monthly migraine days, observed mean (SD)",[6],2.37 days
same,"≥50% improvement (reduction) in monthly migraine days, responder n/N1 (%)",[6],(75.3) %
same,"Monthly headache days, change from baseline, LS means (95% CI) - MMRM",[7],-5.42 days
same,"Monthly migraine days, change from baseline, LS means (95% CI) - MMRM",[7],-4.85 days
same,"Monthly migraine days, observed mean (SD)",[7],2.20 days
same,"≥50% improvement (reduction) in monthly migraine days, responder n/N1 (%)",[7],(75.1) %
same,"Monthly headache days, change from baseline, LS means (95% CI) - MMRM",[8],-5.41 days
same,"Monthly headache days, observed mean (SD)",[8],2.52 days
same,"Monthly migraine days, change from baseline, LS means (95% CI) - MMRM",[8],-4.82 days
same,"Monthly migraine days, observed mean (SD)",[8],2.12 days
same,"≥50% improvement (reduction) in monthly migraine days, responder n/N1 (%)",[8],(76.7) %
same,"Monthly headache days, change from baseline, LS means (95% CI) - MMRM",[9],-5.62 days
same,"Monthly headache days, observed mean (SD)",[9],2.47 days
same,"Monthly migraine days, change from baseline, LS means (95% CI) - MMRM",[9],-4.95 days
same,"Monthly migraine days, observed mean (SD)",[9],2.06 days
same,"≥50% improvement (reduction) in monthly migraine days, responder n/N1 (%)",[9],(80.5) %
same,"Monthly headache days, change from baseline, LS means (95% CI) - MMRM",[10],-5.69 days
same,"Monthly headache days, observed mean (SD)",[10],2.45 days
same,"Monthly migraine days, change from baseline, LS means (95% CI) - MMRM",[10],-4.97 days
same,"Monthly migraine days, observed mean (SD)",[10],2.08 days
same,"≥50% improvement (reduction) in monthly migraine days, responder n/N1 (%)",[10],(78.1) %
same,"Monthly headache days, change from baseline, LS means (95% CI) - MMRM",[11],-5.66 days
same,"Monthly headache days, observed mean (SD)",[11],2.45 days
same,"Monthly migraine days, change from baseline, LS means (95% CI) - MMRM",[11],-4.95 days
same,"Monthly migraine days, observed mean (SD)",[11],2.09 days
same,"≥50% improvement (reduction) in monthly migraine days, responder n/N1 (%)",[11],(78.5) %
same,"Monthly headache days, change from baseline, LS means (95% CI) - MMRM",[12],-5.90 days
same,"Monthly headache days, observed mean (SD)",[12],2.23 days
same,"Monthly migraine days, change from baseline, LS means (95% CI) - MMRM",[12],-5.13 days
same,"Monthly migraine days, observed mean (SD)",[12],1.91 days
same,"≥50% improvement (reduction) in monthly migraine days, responder n/N1 (%)",[12],(82.4) %
same,"Monthly headache days, change from baseline, LS means (95% CI) - MMRM",[13],-5.99 days
same,"Monthly headache days, observed mean (SD)",[13],2.13 days
same,"Monthly migraine days, change from baseline, LS means (95% CI) - MMRM",[13],-5.19 days
same,"Monthly migraine days, observed mean (SD)",[13],1.84 days
same,"≥50% improvement (reduction) in monthly migraine days, responder n/N1 (%)",[13],84.2%
same,"≥50% improvement (reduction) in monthly migraine days, responder n/N1 (%)","Study B, 60 mg QD, Weeks 49-52, mITT, listed as Atogepant",(84.2) %
same,participants with 100% reduction in MMDs,[14],48.4%
same,participants with ≥75% reduction in MMDs,[14],69.9%
same,reduction from baseline in monthly migraine days,"Study B, 60 mg, month 1, given as reduction",approximately 4 days
same,"Change from Baseline in Monthly Acute Medication Use Days, LS means - MMRM",Weeks 1-4,-4.04 days
same,"Monthly Acute Medication Use Days, Observed Mean",Weeks 1-4,2.60 days
same,"Change from Baseline in Monthly Acute Medication Use Days, LS means - MMRM",Weeks 5-8,-4.11 days
same,"Monthly Acute Medication Use Days, Observed Mean",Weeks 5-8,2.49 days
same,"Change from Baseline in Monthly Acute Medication Use Days, LS means - MMRM",Weeks 9-12,-4.18 days
same,"Monthly Acute Medication Use Days, Observed Mean",Weeks 9-12,2.39 days
same,"Change from Baseline in Monthly Acute Medication Use Days, LS means - MMRM",Weeks 13-16,-4.46 days
same,"Monthly Acute Medication Use Days, Observed Mean",Weeks 13-16,2.09 days
same,"Change from Baseline in Monthly Acute Medication Use Days, LS means - MMRM",Weeks 17-20,-4.56 days
same,"Monthly Acute Medication Use Days, Observed Mean",Weeks 17-20,1.92 days
same,"Change from Baseline in Monthly Acute Medication Use Days, LS means - MMRM",Weeks 21-24,-4.49 days
same,"Monthly Acute Medication Use Days, Observed Mean",Weeks 21-24,2.01 days
same,"Change from Baseline in Monthly Acute Medication Use Days, LS means - MMRM",Weeks 25-28,-4.59 days
same,"Monthly Acute Medication Use Days, Observed Mean",Weeks 25-28,1.90 days
same,"Change from Baseline in Monthly Acute Medication Use Days, LS means - MMRM",Weeks 29-32,-4.54 days
same,"Monthly Acute Medication Use Days, Observed Mean",Weeks 29-32,1.84 days
same,"Change from Baseline in Monthly Acute Medication Use Days, LS means - MMRM",Weeks 33-36,-4.66 days
same,"Monthly Acute Medication Use Days, Observed Mean",Weeks 33-36,1.75 days
same,"Change from Baseline in Monthly Acute Medication Use Days, LS means - MMRM",Weeks 37-40,-4.68 days
same,"Monthly Acute Medication Use Days, Observed Mean",Weeks 37-40,1.75 days
same,"Change from Baseline in Monthly Acute Medication Use Days, LS means - MMRM",Weeks 41-44,-4.71 days
same,"Monthly Acute Medication Use Days, Observed Mean",Weeks 41-44,1.69 days
same,"Change from Baseline in Monthly Acute Medication Use Days, LS means - MMRM",Weeks 45-48,-4.90 days
same,"Monthly Acute Medication Use Days, Observed Mean",Weeks 45-48,1.51 days
same,"Change from Baseline in Monthly Acute Medication Use Days, LS means - MMRM",Weeks 49-52,-4.93 days
same,"Monthly Acute Medication Use Days, Observed Mean",Weeks 49-52,1.50 days
